Reference: US12502380B2, “MrgprX2 antagonists for the treatment of inflammatory disorders” (Dermira, Inc., priority 2019, dated 2025)

molecular target: T1, Human MrgprX2 (Homo sapiens, UniProt Q96LB1); experiment: Human MrgprX2 antagonist FLIPR intracellular calcium mobilization assay; assay type: cell-based; conditions: antagonist activity, recombinant hMrgpMRGPRX2 expressing cells, read-out: Human MrgprX2 Antagonist pIC50 (converted)
T1 construct: expressed in transfected cells
T1 sequence (Q96LB1 1-330): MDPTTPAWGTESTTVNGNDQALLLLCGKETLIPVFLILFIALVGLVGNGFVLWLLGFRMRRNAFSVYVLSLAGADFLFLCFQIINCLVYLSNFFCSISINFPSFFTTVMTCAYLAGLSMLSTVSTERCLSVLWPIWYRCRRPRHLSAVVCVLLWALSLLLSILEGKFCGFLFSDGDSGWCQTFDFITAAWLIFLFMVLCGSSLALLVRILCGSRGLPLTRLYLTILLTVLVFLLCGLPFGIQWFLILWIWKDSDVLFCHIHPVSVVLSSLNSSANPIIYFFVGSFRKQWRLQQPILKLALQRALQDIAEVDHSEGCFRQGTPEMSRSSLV
From the text: Potent and selective hMrgpMRGPRX2 compounds have been generated from compounds identified during a high throughput screening (HTS) campaign and followed up with cycles of structure activity based medicinal chemistry efforts. These compounds were characterized in recombinant hMrgpMRGPRX2 expressing cells for their antagonist activity and the potency was confirmed in the human mast cell line LAD-2, where the target is endogenously expressed. The assays used to determine potencies are functional read-out looking at intracellular calcium mobilization using the FLIPR™ technology. In these FLIPR assays, we test the identified compounds using recombinant cellular systems expressing mouse MrgprB2, mouse MrgprA1, gerbil MrgpMRGPRX2 orthologue, Chinese hamster MrgpMRGPRX2 orthologue and cynomolgus monkey MrgpMRGPRX2 orthologue, respectively for orthologue activity.

In order of rising IC50:
1. CC(C)C(=O)Nc1ncc(Cc2cc(F)cc(F)c2)s1 [Compound E041]  2 nM
2. C[C@]1(C(=O)Nc2ncc(Oc3cccc(F)c3)s2)CCOC1 (single isomer, unassigned) [Compound E084, N-[5-(3-fluorophenoxy)thiazol-2-yl]-3-methyl-tetrahydrofuran-3-carboxamide]  3.16 nM
3. C[C@@]1(C(=O)Nc2ncc(Cc3cc(F)cc(F)c3)s2)CCOC1 (single isomer, unassigned) [Compound E052, N-[5-[(3,5-difluorophenyl)methyl]thiazol-2-yl]-3-methyl-tetrahydrofuran-3-carboxamide]  3.98 nM
4. C[C@@]1(C(=O)Nc2ncc(Oc3cccc(F)c3)s2)CCOC1 (single isomer, unassigned) [Compound E083, N-[5-(3-fluorophenoxy)thiazol-2-yl]-3-methyl-tetrahydrofuran-3-carboxamide]  3.98 nM
5. CC1(C(=O)Nc2ncc(Cc3cc(F)cc(F)c3)s2)CCOC1 (centres unmarked) [Compound E046, N-[5-[(3,5-difluorophenyl)methyl]thiazol-2-yl]-3-methyl-tetrahydrofuran-3-carboxamide]  5.01 nM
6. C[C@]1(C(=O)Nc2ncc(Cc3cc(F)cc(F)c3)s2)CCOC1 (single isomer, unassigned) [Compound E053, N-[5-[(3,5-difluorophenyl)methyl]thiazol-2-yl]-3-methyl-tetrahydrofuran-3-carboxamide]  7.94 nM
7. CC(C)C(=O)Nc1ncc(Cc2ccc(F)c(F)c2)s1 [Compound E043]  7.94 nM
8. CC1(C(=O)Nc2ncc(Cc3cc(F)cc(F)c3)s2)CCOCC1 [Compound E044]  15.8 nM
9. CC1(C(=O)Nc2ncc(Cc3cc(F)cc(F)c3)s2)COC1 [Compound E047]  25.1 nM
10. NS(=O)(=O)N1CCC[C@@H]1C(=O)Nc1ncc(Cc2cccc(F)c2)s1 [Compound E057, (2R)—N-[5-[(3-fluorophenyl)methyl]thiazol-2-yl]-1-sulfamoyl-pyrrolidine-2-carboxamide]  31.6 nM
11. CC(C)(C(=O)Nc1ncc(Cc2ccccc2F)s1)N1CCOCC1 [Compound E003]  39.8 nM
12. CC(C)C(=O)Nc1ncc(Cc2ccc(F)cc2F)s1 [Compound E042]  39.8 nM
13. CN1CCC[C@@H]1C(=O)Nc1ncc(Cc2cccc(F)c2)s1 [Compound E054, (2R)—N-[5-[(3-fluorophenyl)methyl]thiazol-2-yl]-1-methyl-pyrrolidine-2-carboxamide]  39.8 nM
14. C[C@@]1(C(=O)Nc2ncc(Cc3cccc(Cl)c3)s2)CCOC1 (single isomer, unassigned) [Compound E050, N-[5-[(3-chlorophenyl)methyl]thiazol-2-yl]-3-methyl-tetrahydrofuran-3-carboxamide]  63.1 nM
15. CC1(C(=O)Nc2ncc(Cc3cccc(Cl)c3)s2)CCOC1 (centres unmarked) [Compound E033, N-[5-[(3-chlorophenyl)methyl]thiazol-2-yl]-3-methyl-tetrahydrofuran-3-carboxamide]  79.4 nM
16. C[C@]1(C(=O)Nc2ncc(Cc3cccc(Cl)c3)s2)CCOC1 (single isomer, unassigned) [Compound E051, N-[5-[(3-chlorophenyl)methyl]thiazol-2-yl]-3-methyl-tetrahydrofuran-3-carboxamide]  100 nM
17. CC1(C(=O)Nc2ncc(Cc3cccc(F)c3)s2)CCOCC1 [Compound E007]  100 nM
18. O=C(Nc1ncc(Cc2cccc(F)c2)s1)C1(C(F)(F)F)CC1 [Compound E027]  100 nM
19. C[C@@]1(C(=O)Nc2ncc(Cc3cccc(F)c3)s2)CCOC1 (single isomer, unassigned) [Compound E048, N-[5-[(3-fluorophenyl)methyl]thiazol-2-yl]-3-methyl-tetrahydrofuran-3-carboxamide]  126 nM
20. CC(C)(C(=O)Nc1ncc(Cc2ccc(F)cc2)s1)N1CCOCC1 [Compound E006]  126 nM
21. CC1(C(=O)Nc2ncc(Cc3cccc(F)c3)s2)CCOC1 (centres unmarked) [Compound E015, N-[5-[(3-fluorophenyl)methyl]thiazol-2-yl]-3-methyl-tetrahydrofuran-3-carboxamide]  126 nM
22. CC1(C(=O)Nc2ncc(Oc3ccccc3)s2)CCOCC1 [Compound E020]  126 nM
23. CC1(C(=O)Nc2ncc(Cc3cccc(Cl)c3)s2)CCOCC1 [Compound E023]  126 nM
24. CN1CCC[C@H]1C(=O)Nc1ncc(Cc2cccc(F)c2)s1 [Compound E058, (2S)—N-[5-[(3-fluorophenyl)methyl]thiazol-2-yl]-1-methyl-pyrrolidine-2-carboxamide]  126 nM
25. CC(C)(C#N)C(=O)Nc1ncc(Cc2cccc(Cl)c2)s1 [Compound E034]  158 nM
26. CC1(C(=O)Nc2ncc(Cc3ccc(F)c(F)c3)s2)CCOCC1 [Compound E045]  158 nM
27. C[C@]1(C(=O)Nc2ncc(Cc3cccc(F)c3)s2)CCOC1 (single isomer, unassigned) [Compound E049, N-[5-[(3-fluorophenyl)methyl]thiazol-2-yl]-3-methyl-tetrahydrofuran-3-carboxamide]  200 nM
28. CC(O)(C(=O)Nc1ncc(Cc2cccc(F)c2)s1)C(F)(F)F (centres unmarked) [Compound E025]  200 nM
29. COC(C)(C)C(=O)Nc1ncc(Cc2ccccc2F)s1 [Compound E019]  251 nM
30. CC(C)(F)C(=O)Nc1ncc(Cc2ccccc2F)s1 [Compound E021]  251 nM
31. CC(C)(C)OC(=O)N1CCC[C@]1(C)C(=O)Nc1ncc(Cc2cccc(F)c2)s1 [Compound E037, tert-butyl (2R)-2-[[5-[(3-fluorophenyl)methyl]thiazol-2-yl]carbamoyl]-2-methyl-pyrrolidine-1-carboxylate]  251 nM
32. CC(C(=O)Nc1ncc(Cc2ccccc2F)s1)N1CCOCC1 (centres unmarked) [Compound E009]  316 nM
33. CC(C)(C)OC(=O)N1CCC(C)(C(=O)Nc2ncc(Cc3ccccc3F)s2)CC1 [Compound E018]  316 nM
34. CC1(C(=O)Nc2ncc(Cc3cccc(Cl)c3)s2)COC1 [Compound E036]  316 nM
35. CC1(C(=O)Nc2ncc(Cc3ccc(F)cc3)s2)CCOCC1 [Compound E001, N-[5-[(4-fluorophenyl)methyl]thiazol-2-yl]-4-methyl-tetrahydropyran-4-carboxamide]  398 nM
36. CC1(C(=O)Nc2ncc(Cc3ccccc3F)s2)CCOCC1 [Compound E004]  398 nM
37. O=C(CN1CCCCC1)Nc1ncc(Cc2ccccc2F)s1 [Compound E013]  398 nM
38. Cc1cccc(Cc2cnc(NC(=O)C3(C)CCOCC3)s2)c1 [Compound E024]  398 nM
39. CN(C)C(C)(C)C(=O)Nc1ncc(Cc2ccccc2F)s1 [Compound E011]  501 nM
40. CC(C)(C#N)C(=O)Nc1ncc(Cc2ccccc2F)s1 [Compound E012]  631 nM
41. CC1(C(=O)Nc2ncc(Cc3ccccc3F)s2)CCOC1 (centres unmarked) [Compound E014]  631 nM
42. O=C(Nc1ncc(Cc2cccc(F)c2)s1)C1(CO)CC1 [Compound E029]  631 nM
43. Cc1nc(NC(=O)C(C)C)sc1Cc1ccccc1 [Compound E040]  631 nM
44. CC(C)(CO)C(=O)Nc1ncc(Cc2ccccc2F)s1 [Compound E010]  1260 nM
45. CC(C(=O)Nc1ncc(Cc2ccccc2F)s1)N1CCCC1 (centres unmarked) [Compound E017]  1260 nM
46. O=C(Nc1ncc(Cc2cccc(F)c2)s1)C1CCCC1O (centres unmarked) [Compound E038]  1580 nM
47. CS(=O)(=O)N1CCC[C@@H]1C(=O)Nc1ncc(Cc2cccc(F)c2)s1 [Compound E056, (2R)—N-[5-[(3-fluorophenyl)methyl]thiazol-2-yl]-1-methylsulfonyl-pyrrolidine-2-carboxamide]  1580 nM
48. C[C@@H](CO)C(=O)Nc1ncc(Cc2cccc(F)c2)s1 [Compound E031]  2000 nM
49. O=C(Nc1ncc(Cc2cccc(F)c2)s1)C1(O)CC1 [Compound E026]  2510 nM
50. CC(C)(C)OC(=O)N1CCC[C@@H]1C(=O)Nc1ncc(Cc2cccc(F)c2)s1 [Compound E035, tert-butyl (2R)-2-[[5-[(3-fluorophenyl)methyl]thiazol-2-yl]carbamoyl]pyrrolidine-1-carboxylate]  3160 nM
51. CC(C)(O)C(=O)Nc1ncc(Cc2ccccc2F)s1 [Compound E005]  3980 nM
52. O=C(Nc1ncc(Cc2ccccc2F)s1)C1CCOC1 (centres unmarked) [Compound E008]  3980 nM
53. CC1(C(=O)Nc2ncc(Cc3ccccc3F)s2)COC1 [Compound E016]  3980 nM
54. CC(=O)N1CCC[C@@H]1C(=O)Nc1ncc(Cc2cccc(F)c2)s1 [Compound E055, (2R)-1-acetyl-N-[5-[(3-fluorophenyl)methyl]thiazol-2-yl]pyrrolidine-2-carboxamide]  3980 nM
55. CC(F)(F)C(=O)Nc1ncc(Cc2ccccc2F)s1 [Compound E022]  5010 nM
56. N#CC1(C(=O)Nc2ncc(Cc3ccccc3F)s2)CCOCC1 [Compound E028]  6310 nM
57. CC(C)C(=O)Nc1nc(-c2ccccc2)cs1 [Compound E039]  6310 nM
58. CC(C)C(=O)Nc1ncc(Cc2cccc(C(F)(F)F)c2)s1 [Compound E002]  7940 nM
59. CC1(C(=O)Nc2ncc(Cc3cccc(F)c3)s2)CCC(=O)N1 (centres unmarked) [Compound E032]  7940 nM
